# Measured values taken from PMC10739329, “Correlation of bioactive marker compounds of an orally applied Morus alba root bark extract with toxicity and efficacy in BALB/c mice” (Frontiers in Pharmacology, 2023).
# Where “and” joins values, the source holds several entries; their conditions need not be identical. Equal values may be shown once. Read-outs that look alike come from different tables or passages of the source.
# Assays:
# [1] = UPLC-ESI-MS quantitation of sanggenons C and D in serum and tissue samples, acute toxicity study; assay type: in vivo, BALB/c mice; settings: for concentration at 3 h: BALB/c, mouse, serum, oral; for serum concentration: one (efficacy study) and three (acute toxicity study) hours after the last oral MA60 administration
# [2] = MS/MS search for metabolites of sanggenons C and D in serum samples; assay type: in vivo, BALB/c mice
# Experimental: In the present study, concentration of bioactive sanggenons C and D was determined in serum and tissue samples and correlated with the administered the doses of MA60. […] Already during dose finding and acute toxicity studies, a high variation in serum concentrations of the selected marker compounds was detected within all three dose groups (30, 100, and 300 mg/kg). No dose dependency could be observed regarding the serum concentrations. This might be due to i) inhomogeneities in the CMC suspension of the MA60 extract, ii) the inter-individual differences in the resorption of sanggenons, or iii) the formation of sanggenon metabolites: • (i) For oral gavage administration, MA60 was suspended in 0.3% carboxymethyl cellulose (CMC) as vehicle. This is based on literature data, where even a higher dose of up to 400 mg/kg of a 70% EtOH extract of M. alba root bark ([Lim et al., 2013]) was previously administered to mice per gavage feeding. […] In the present study, an MS/MS analysis was conducted to also search for metabolites of the selected marker compounds sanggenon C and sanggenon D. The search included (di)glucuronides and hydroxylated metabolites as well as further conjugates such as sulfated metabolites.
# [3] = in vivo; cited from earlier work
# [4] = MA60 30 mg/kg oral, samples 26-30 in order, 3 h after last treatment
# [5] = MA60 100 mg/kg oral, samples 31-35 in order, 3 h after last treatment
# [6] = MA60 300 mg/kg oral, samples 36-40 in order, 3 h after last treatment
# [7] = MA60 100 mg/kg oral once daily for seven days, samples 68-71 in order, sacrificed 24 h after last application
compound,measurement,setting,value
CC(C)=CC[C@]12Oc3cc(O)c([C@H]4C=C(C)C[C@H](c5ccc(O)cc5O)[C@H]4C(=O)c4ccc(O)cc4O)c(O)c3C(=O)[C@@]1(O)Oc1cc(O)ccc12 [sanggenon C],concentration at 3 h,"[1]; 30 mg/kg, MA60 30 mg/kg oral once daily 7 days, 3 h after last treatment, read-out: amount of sanggenon C in serum (dose group)",< 9.1 ng/mL
same,concentration at 3 h,"[1]; 30 mg/kg, MA60 30 mg/kg oral, samples 26-30 in order, 3 h after last treatment, read-out: quantified amount of sanggenon C serum, individual samples",4.97 ng/mL
same,concentration at 3 h,"[1]; 100 mg/kg, MA60 100 mg/kg oral once daily 7 days, 3 h after last treatment, read-out: amount of sanggenon C in serum (dose group)",7.94 to 31.5 ng/mL
same,concentration at 3 h,"[1]; 300 mg/kg, MA60 300 mg/kg oral once daily 7 days, 3 h after last treatment, read-out: amount of sanggenon C in serum (dose group)",21.2 to 227 ng/mL
same,concentration at 3 h,"[1]; mice sacrificed 3 hours after the last application, read-out: average serum concentration of sanggenon C",< 2 ng/mL
same,"quantified amount of sanggenon C serum, individual samples",[1]; [4],n.f. (3×) and 9.10 ng/mL
same,"quantified amount of sanggenon C serum, individual samples",[1]; [5],7.94 ng/mL and 9.28 ng/mL and 31.53 ng/mL and 11.17 ng/mL and 13.02 ng/mL
same,"quantified amount of sanggenon C serum, individual samples",[1]; [6],25.74 ng/mL and 21.21 ng/mL and 227.26 ng/mL and 24.13 ng/mL and 103.00 ng/mL
same,serum concentration,[1],less than 1%
same,"metabolites ((di)glucuronides, hydroxylated, sulfated conjugates) in serum samples","[2]; mouse, in vivo, po",neither the corresponding masses nor the phase-II-conjugates could be detected
same,serum concentrations of sanggenon C (group),"MA60 100 mg/kg oral, after 24 h (#68-#71), below this value or not detectable",below 2.77 ng/mL
C=C(C)[C@H](CC=C(C)C)Cc1c(O)cc(OC)c(C(=O)/C=C/c2ccc(O)cc2O)c1O [kuraridin],metabolites found in rat serum,[3],mono- and di-glucuronides as well as hydroxylated derivatives
sanggenon D,"quantified amount of sanggenon D liver, individual samples",[1]; [4],n.f.
same,"quantified amount of sanggenon D lung, individual samples",[1]; [4],"n.f. (4×) and 1,005.12 ng/mL"
same,"quantified amount of sanggenon D liver, individual samples",[1]; [5],n.f. and 34.18 ng/mL and 26.97 ng/mL
same,"quantified amount of sanggenon D lung, individual samples",[1]; [5],"n.f. (2×) and 2,980.27 ng/mL and 343.27 ng/mL and 10,306.71 ng/mL"
same,"quantified amount of sanggenon D liver, individual samples",[1]; [6],70.13 ng/mL and 89.18 ng/mL and 979.27 ng/mL and 996.87 ng/mL and 447.53 ng/mL
same,"quantified amount of sanggenon D lung, individual samples",[1]; [6],n.f.
same,sanggenon D concentration in liver tissues,"[1]; high dose group (300 mg/kg), #38 and #39",~1 µg/mL
same,sanggenon D in liver samples,[1]; low dose group (MA60 30 mg/kg oral),not detected
same,serum concentration,[1],less than 1%
same,"metabolites ((di)glucuronides, hydroxylated, sulfated conjugates) in serum samples",[2]; MS/MS analysis after oral MA60,neither the corresponding masses nor the phase-II-conjugates could be detected
same,"quantified amount of sanggenon D liver, individual samples",[7],n.f.
same,"quantified amount of sanggenon D lung, individual samples",[7],n.f.
same,sanggenon D in liver,"MA60 100 mg/kg oral, after 24 h",could not be determined
same,sanggenon D in liver,"MA60 100 mg/kg oral, mice sacrificed after 1 h",high amount
same,"quantified amount of sanggenon D lung, individual samples","MA60 100 mg/kg oral, samples 64-67 in order, sacrificed 1 h after treatment",n.f.
